Experiments:
[1] = tested on: vaccinia virus-specific CD8^+ CTL lines; type: cell-based, human
[2] = tested on: CD8^+ T cells in PBMCs of HLA-A0201-positive donors; type: cell-based, human

Sequence | recognition by CTL line [1] | specific recognition of epitope peptide by CTL line [1] | kinetics of the frequency of epitope-specific CD8^+ T cells: peak [2] | kinetics of the frequency of epitope-specific CD8^+ T cells: persistence [2]
LLYAHINAL [peptide 029D] | recognized | – | – | –
MPAYIRNTL [peptide B7034] | recognized | – | – | –
KVDDTFYYV [peptide 165] | recognized | high level of specific recognition | peaked two weeks after primary immunization | still detectable one to three years following primary immunization
CLTEYILWV [peptide 74A] | recognized | high level of specific recognition | peaked two weeks after primary immunization | still detectable one to three years following primary immunization
TVADVRHCL [peptide B7080] | recognized | – | – | –
